Assay [1] relates to intestinal calcium transport. The assay can be described thus: Intestinal calcium transport in rats on low calcium diet. The class given is in vivo, Sprague-Dawley rats. The conditions noted are these: for Ca transport S/M (mean ± SEM): daily for 7 days, male weanling rats, 0.02% Ca diet. The procedure: Intestinal calcium transport was carried out as described by Penman et al (Biochemistry 29, 190-196,1990).
(§1) Male, weanling Sprague-Dawley rats were placed on Diet 11 (0.47% Ca) diet+AEK for 11 days, followed by Diet 11 (0.02% Ca)+AEK for 31 days. Dosing (i.p.) began 7 days prior to sacrifice. Doses were given on a daily basis, 24 hours apart. The first 10 cm of the intestine was collected for gut transport studies and serum was collected for bone Ca mobilization analysis.

The subject of assay [2] is bone calcium mobilization. Kind of assay: Serum calcium (bone calcium mobilization) in rats on low calcium diet. The class given is in vivo, Sprague-Dawley rats. As to conditions: for Serum Ca (mean ± SEM): daily for 7 days, male weanling rats, 0.02% Ca diet. The procedure:
as §1

The target in assay [3] is T1, vitamin D pig intestinal nuclear receptor (Sus scrofa, UniProt A3RGC1).
T1 construct: from tissue; host or cells: pig intestine (nuclear receptor preparation)
T1 sequence (A3RGC1 1-427): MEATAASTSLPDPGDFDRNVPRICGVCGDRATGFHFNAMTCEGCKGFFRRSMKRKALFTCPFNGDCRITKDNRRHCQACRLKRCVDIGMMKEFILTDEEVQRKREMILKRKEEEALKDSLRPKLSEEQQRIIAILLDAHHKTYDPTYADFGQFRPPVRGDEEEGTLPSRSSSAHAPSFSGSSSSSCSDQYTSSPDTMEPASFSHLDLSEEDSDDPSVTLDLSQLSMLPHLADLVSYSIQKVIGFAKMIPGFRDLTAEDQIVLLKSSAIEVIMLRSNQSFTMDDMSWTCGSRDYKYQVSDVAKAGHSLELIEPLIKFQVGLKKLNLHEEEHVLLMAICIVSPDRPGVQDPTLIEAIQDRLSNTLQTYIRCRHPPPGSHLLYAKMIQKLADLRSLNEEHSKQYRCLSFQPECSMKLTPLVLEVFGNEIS
As to conditions: Ostrem et al. J. Biol. Chem. 262, 14164-14171, 1987; cited from earlier work.

Assay [4] deals with HL-60 cells. The assay can be described thus: Differentiation of HL-60 promyelocytes into monocytes. Format: cell-based. The conditions noted are these: FIG. 2. The procedure:
FIG. 2 is a graph illustrating the percent HL-60 cell differentiation as a function of the concentration of (20S)-1α-hydroxy-2-methylene-19-nor-vitamin D3 and of 1,25-dihydroxyvitamin D3
The differentiation of HL-60 promyelocytic into monocytes was determined as described by Ostrem et al (J. Biol. Chem. 262, 14164-14171, 1987).

The target of assay [5] is T1, vitamin D pig intestinal nuclear receptor. Kind of assay: Competitive binding of [3H]-1,25-(OH)2-D3 to the porcine intestinal vitamin D receptor. The procedure:
FIG. 1 is a graph illustrating the relative activity of (20S)-1α-hydroxy-2-methylene-19-nor-vitamin D3 and 1α,25-dihydroxyvitamin D3 to compete for binding of [^3H]-1,25-(OH)2-D3 to the vitamin D pig intestinal nuclear receptor; and
Competitive binding of the analog to the porcine intestinal receptor was carried out by the method described by Dame et al. (Biochemistry 25, 4523-4534, 1986).

With `C=C1/C(=C\C=C2/CCC[C@]3(C)[C@@H]([C@H](C)CCCC(C)(C)O)CC[C@@H]23)C[C@@H](O)C[C@@H]1O` [1α,25-(OH)2D3, 1α,25-dihydroxyvitamin D3, reference compound], in assay [1] (260 pmol/day i.p.), the “Ca transport S/M (mean ± SEM)” value stood at 7.7 ± 0.52. The “Serum Ca (mean ± SEM)” value in assay [2] (260 pmol/day i.p.) is given as 6.25 ± 0.19.

As to `C=C1/C(=C\C=C2/CCC[C@]3(C)[C@@H]([C@H](C)CCCC(C)C)CC[C@@H]23)C[C@@H](O)C[C@@H]1O` [1α-hydroxyvitamin D3], the “decrease in binding activity resulting from lack of a 25-hydroxyl” value in assay [3] was 100 fold.

Consider `C=C1[C@H](O)CC(=C/C=C2\CCC[C@@]3(C)C2CCC3[C@@H](C)CCCC(C)C)C[C@H]1O` (stereo partly drawn) [(20S)-1α-(OH)-2-methylene-19-nor-D3, (20S)-1α-hydroxy-2-methylene-19-nor-vitamin D3], for which the “Ca transport S/M (mean ± SEM)” value stood at 10.1 ± 0.68 in assay [1] (130 pmol/day i.p.) and 10.0 ± 0.59 in assay [1] (260 pmol/day i.p.). The “activity in stimulating intestinal calcium transport relative to 1,25-(OH)2D3” value in assay [1] (statement in words on Table 1) is “higher activity as compared to that of 1,25-(OH)2D3”. The “Serum Ca (mean ± SEM)” value in assay [2] (130 pmol/day i.p.) was determined as 9.63 ± 0.12; in assay [2] (260 pmol/day i.p.), 12.60 ± 0.54. Further, the “bone calcium mobilization activity relative to 1,25-(OH)2D3” value in assay [2] (statement in words on Table 1) is listed as “higher bone calcium mobilization activity, as compared to 1,25-(OH)2D3”. In addition, the “potency on HL-60 differentiation relative to 1,25-(OH)2D3” value is listed as “more active than 1,25-(OH)2D3” in assay [4] (listed as (20S)-1α-Hydroxy-2-methylene-19-nor-vitamin D3) and “more potent than 1,25-(OH)2D3” in assay [4] (listed as (20S)-1α-hydroxy-2-methylene-19-nor-vitamin D3). Further, the “ability to bind the vitamin D receptor relative to 1,25-dihydroxyvitamin D3” value was “only a little less activity than 1,25(OH)2D3” in assay [5] (FIG. 1) and “only one-tenth that of 1,25-dihydroxyvitamin D3” in assay [5] (FIG. 1, listed as 2-Methylene-19-nor-(20S)-1α-hydroxyvitamin D3).

Source of the values: patent US20050009792A1, “(20S)-1alpha-hydroxy-2-methylene-19-nor-vitamin D3 and its uses” (priority 2003, published 2005).
